Counter-ions that a name gives are not always drawn.
assay: Free radical-scavenging/antioxidant assay (DPPH); assay type: biochemical; conditions: 50 μM DPPH in 80% methanol, absorbance at 520 nm, 24 h time point (steady state)
Protocol: Nitrone compounds of the present invention were tested for their free-radical scavenging/antioxidant activity in an in vitro assay that was accepted by those skilled in the art as a model for conditions involving the generation of free radicals. The assay was based on a reaction between a free-radical donor, 2,2-diphenyl-1-picrylhydrazyl (DPPH), and a radical scavenger/antioxidant to be tested for free-radical scavenging activity. Upon donation of the free-radical electron to the purported radical scavenger, the peak vwasible absorbance of DPPH (515-520 nm) decreases so that optical density readings at thwas part of the vwasual spectrum reflect the progression of the following reaction: DPPH•+AH →DPPH—H+A• where AH was a hypothetical radical scavenger/antioxidant. The assay was based on a protocol originally detailed in Brand-Williams, W. et al., 1995, Use of a Free Radical Method to Evaluate Antioxidant Activity, Lebensm. Wwass. Technol., 28:25-30, with further modifications described in L. R. Fukumoto and G. Mazza, 2000, Assessing Antioxidant and Prooxidant Activities of Phenolic Compounds, J. Agric. Food Chem., 48:3597-3604.
The antioxidant assay was performed using Perkin-Elmer 96-well, clear-bottom, black-wall plates (ordered from E & K Scientific Products) and a Tecan Safire absorbance plate reader. The positive controls were Trolox (6-hydroxy-2,5,7,8-tetramethylchromane-2-carboxylic acid, Sigma-Aldrich), BHA (2(3)-tert-butylhydroquinone monomethyl ether, Sigma-Aldrich), PBN (C-(phenyl)-N-(tert-butyl)nitrone, Sigma-Aldrich) and S-PBN (C-(2-sulfophenyl)-N-(tert-butyl)nitrone, sodium salt, prepwered according to E. G. Janzen and R. V. Shetty, 1979, Tetrahedron Lett., 35: 3229-32), and the negative control (i.e., vehicle) was DMSO. In brief, 2 μL of 100×DMSO stock of the desired final concentration of each control or nitrone compound to be tested in the same batch was added to a separate well. To each well was then added 198 μL of a freshly made 50 μM DPPH (Sigma-Aldrich) solution in 80% methanol using a multi-channel pipette. The absorbance was immediately read on the plate reader at 520 nm and thereafter read periodically to assess kinetics until all reactions reached completion (i.e., steady state). Since the steady-state point was 24 h, the assay results were shown from the 24 h time point. The absorbance at 520 nm (OD) was plotted versus the concentrations of the controls and nitrone compounds to assess dose-response and interpolate the EC50 values of the controls and test compounds.

SMILES	EC50
CC(C)(C)/[N+]([O-])=C/c1ccccc1S(=O)(=O)O [SPBN, C-(2-sulfophenyl)-N-(tert-butyl)nitrone, sodium salt, reference compound]	> 1000 µM
Cc1ccc(C(C)C)c(OC/C=[N+](\[O-])Cc2ccccc2)c1 [Example 9, N-Benzyl-C-[(2-isopropyl-5-methyl-phenoxy)methyl]nitrone]	50 to 100 µM
Cc1ccc(C(C)C)c(OC/C=[N+](\[O-])C(C)(C)C)c1 [Example 7, N-tert-Butyl-C-[(2-isopropyl-5-methyl-phenoxy)methyl]nitrone]	50 to 100 µM
[O-]/[N+](=C\CCOc1ccccc1)C1CCCCC1 [Example 18, N-Cyclohexyl-C-2-(phenoxy)ethyl nitrone]	> 1000 µM
[O-]/[N+](=C\COCc1ccccc1)Cc1ccccc1 [Example 16, N-Benzyl-C-(benzyloxy)methyl nitrone]	50 to 100 µM
COc1ccc(O)c(C(C)(C)C)c1 [BHA, 2(3)-tert-butylhydroquinone monomethyl ether, reference compound]	10 to 50 µM
CC(C)(C)/[N+]([O-])=C/COc1nccc2ccccc12 [Example 14]	50 to 100 µM
CC(C)(C)/[N+]([O-])=C/c1ccccc1 [PBN, C-(phenyl)-N-(tert-butyl)nitrone, reference compound]	> 1000 µM
[O-]/[N+](=C\CCOc1ccccc1)Cc1ccccc1 [Example 19, N-Benzyl-C-2-(phenoxy)ethyl nitrone]	100 to 1000 µM
CC(C)(C)/[N+]([O-])=C/CCOc1ccccc1 [Example 17, N-tert-Butyl-C-2-(phenoxy)ethyl nitrone]	10 to 50 µM
COc1ccc(OC/C=[N+](\[O-])C(C)(C)C)cc1 [Example 4, N-tert-Butyl-C-[(4-methoxy-phenoxy)methyl]nitrone]	10 to 50 µM
[O-]/[N+](=C\COc1ccccc1)C1CCCCC1 [Example 2, N-Cyclohexyl-C-(phenoxymethyl)nitrone]	50 to 100 µM

The next lines start with the values.

EC50	SMILES
< 10 µM	CC(C)(C)/[N+]([O-])=C/CCSc1ccccc1 [Example 20, N-tert-Butyl-C-2-(phenylsulfanyl)ethyl nitrone]
10 to 50 µM	Cc1ccc(SC/C=[N+](\[O-])C(C)(C)C)cc1 [Example 10, N-tert-Butyl-C-[(4-methyl-thiophenoxy)methyl]nitrone]
10 to 50 µM	CC(C)(C)/[N+]([O-])=C/COc1ccccc1 [Example 1, N-tert-Butyl-C-(phenoxymethyl)nitrone]
10 to 50 µM	CC(C)(C)/[N+]([O-])=C/CCOc1ccccn1 [Example 25, N-tert-Butyl-C-2-(pyridin-2-yloxy)ethyl nitrone]
10 to 50 µM	CC(C/C=[N+](\[O-])C1CCCCC1)Sc1ccccc1 (stereo not drawn) [Example 23, N-Cyclohexyl-C-2-(phenylsulfanyl)propyl nitrone]
< 10 µM	Cc1c(C)c2c(c(C)c1O)CCC(C)(C(=O)O)O2 (stereo not drawn) [Trolox, 6-hydroxy-2,5,7,8-tetramethylchromane-2-carboxylic acid, reference compound]
10 to 50 µM	[O-]/[N+](=C\COc1ccccc1)Cc1ccccc1 [Example 3, N-Benzyl-C-(phenoxymethyl)nitrone]
10 to 50 µM	CC(C)(C)/[N+]([O-])=C/COCc1ccccc1 [Example 26, N-tert-Butyl-C-(benzyloxy)methyl nitrone]
< 10 µM	[O-]/[N+](=C\COc1ccccn1)Cc1ccccc1 [Example 13, N-Benzyl-C-(pyridin-2-yloxy)methyl nitrone]
< 10 µM	COc1ccc(OC/C=[N+](\[O-])C2CCCCC2)cc1 [Example 5, N-Cyclohexyl-C-[(4-methoxy-phenoxy)methyl]nitrone]
< 10 µM	CC(C/C=[N+](\[O-])C(C)(C)C)Sc1ccccc1 (stereo not drawn) [Example 22, N-tert-Butyl-C-2-(phenylsulfanyl)propyl nitrone]
10 to 50 µM	[O-]/[N+](=C\CCSc1ccccc1)Cc1ccccc1 [Example 21, N-Benzyl-C-2-(phenylsulfanyl)ethyl nitrone]
10 to 50 µM	[O-]/[N+](=C\COCc1ccccc1)C1CCCCC1 [Example 15, N-Cyclohexyl-C-(benzyloxy)methyl nitrone]
10 to 50 µM	CC(C)(C)/[N+]([O-])=C/COc1ccccn1 [Example 11, N-tert-Butyl-C-(pyridin-2-yloxy)methyl nitrone]
10 to 50 µM	Cc1ccc(C(C)C)c(OC/C=[N+](\[O-])C2CCCCC2)c1 [Example 8, N-Cyclohexyl-C-[(2-isopropyl-5-methyl-phenoxy)methyl]nitrone]
< 10 µM	CC(C/C=[N+](\[O-])Cc1ccccc1)Sc1ccccc1 (stereo not drawn) [Example 24, N-Benzyl-C-2-(phenylsulfanyl)propyl nitrone]
< 10 µM	COc1ccc(OC/C=[N+](\[O-])Cc2ccccc2)cc1 [Example 6, N-Benzyl-C-[(4-methoxy-phenoxy)methyl]nitrone]
< 10 µM	[O-]/[N+](=C\COc1ccccn1)C1CCCCC1 [Example 12, N-Cyclohexyl-C-(pyridin-2-yloxy)methyl nitrone]
